Columns and labels:
myocardium = conditions: cited from earlier work
[1] = PET imaging studies in patients with ischemic cardiomyopathy; format: in vivo; conditions: same subjects
Procedure: PET imaging studies were performed with 16F4THA in patients with ischemic cardiomyopathy. Conventional nuclear medicine perfusion scans were obtained in the same subjects.

isolated rat hearts = test: Tracer uptake versus palmitate beta-oxidation rate in isolated perfused rat hearts; set-up: species or system Sprague Dawley rats; conditions: Langendorff perfusion, 0.15 mM palmitate, 5 mM glucose; both normoxic (95% oxygen) and hypoxic (35% oxygen) conditions
Procedure: Model 4-thia analogs (16-[^18F]fluoro-4-thia-hexadecanoic acid and 12-[^18F]fluoro-4-thia-dodecanoic acid) were examined as tracers in isolated rat hearts. The perfusate was Krebs-Hensleit buffer with 1% albumin, 0.15 mM palmitate, and 5 mM glucose. Sprague Dawley rats (200-225 g) were fed ad libetum. The hearts were excised from pentobarbital-anesthetized animals and perused at 7 ml/min in Langendorff retrograde fashion. The perfusate was gassed with either 95% oxygen (normoxic) or 35% oxygen (hypoxic) gas mixture. The gases comprising the remaining fraction were nitrogen and carbon dioxide (5% for both). The tracer was administered as a bolus or as a pulse infusion into the isolated rat hearts. Pulse infusion allowed absolute quantification of ^18F accumulation rates that reflect the metabolic rate of the tracer in the heart. Clearance rates are measured during the washout phase of these experiments. Beta-oxidation rates of 9,10[^3H] palmitate were measured by collection of venous effluent samples and separation of titrated water.

Structure (SMILES): CCCC([18F])CCCCCCCSCCCCC(=O)O (stereo not shown) [Compound 14F6THA]
- tracking of beta-oxidation of palmitate (myocardium; a number of conditions): tracks beta-oxidation of palmitate
- sensitivity to inhibition of beta-oxidation in myocardium (myocardium; hypoxia with normal blood flow): insensitive

Structure (SMILES): O=C(O)CCSCCCCCCCCCCCC[18F] [Compound 16F4THA, 16-[^18F]Fluoro-4-thia-hexadecanoic acid]
- quality of PET scans compared with conventional nuclear medicine perfusion scans [1]: superior quality

Structure (SMILES): O=C(O)CCCCSCCCCCCCCCCC[18F] [Compound 17F6THA, 17-[^18F]Fluoro-6-thia-heptadecanoic acid]
- correlation of beta-oxidation rates with uptake rates of the tracer (r) (isolated rat hearts): poor correlation

From patent US6362352B1, “F18-labeled thia fatty acids and methods of making and using the same” (Duke University, priority 1999, dated 2002)
